Test results published in patent US11873299B1, “7-(4-((5-(4-chlorobenzylideneamino)-2-thioxo-1,3,4-thiadiazol-3(2H)-yl)methyl)iperazin-1-yl)-1-cyclopropyl-6-fluoro-4-oxo-1,4-dihydroquinoline-3-carboxylic acid as an anti-inflammatory compound” (KING FAISAL UNIVERSITY, priority 2023, dated 2024).

Experiments:
[1] = target: Bovine Serum Albumin (BSA) (Bos taurus, UniProt P02769); assay: Bovine Serum Albumin Assay (BSA), inhibition of protein denaturation; format: biochemical; details: dilutions of 20, 40, 60, 80, and 100 μg/mL; 0.4% w/v BSA, pH 6.4; 72° C. for 10 minutes; turbidity at 660 nm
Chain of Bovine Serum Albumin (BSA) (P02769 25-607): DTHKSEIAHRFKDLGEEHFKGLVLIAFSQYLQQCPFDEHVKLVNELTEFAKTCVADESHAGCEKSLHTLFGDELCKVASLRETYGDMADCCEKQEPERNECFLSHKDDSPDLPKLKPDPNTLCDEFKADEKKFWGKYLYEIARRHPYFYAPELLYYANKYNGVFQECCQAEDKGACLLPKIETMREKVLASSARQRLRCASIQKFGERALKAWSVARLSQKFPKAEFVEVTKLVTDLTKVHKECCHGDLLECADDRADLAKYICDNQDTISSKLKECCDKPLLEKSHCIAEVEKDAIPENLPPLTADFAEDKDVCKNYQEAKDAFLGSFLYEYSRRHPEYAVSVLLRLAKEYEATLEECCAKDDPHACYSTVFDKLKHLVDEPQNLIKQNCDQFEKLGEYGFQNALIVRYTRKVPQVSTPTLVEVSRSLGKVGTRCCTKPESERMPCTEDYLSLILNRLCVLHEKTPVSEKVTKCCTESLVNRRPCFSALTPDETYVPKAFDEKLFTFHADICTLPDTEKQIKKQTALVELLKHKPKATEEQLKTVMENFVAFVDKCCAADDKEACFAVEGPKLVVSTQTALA
Procedure: Bovine Serum Albumin Assay (BSA)
In vitro-inflammatory activities of the tested samples were determined using a modified method of the BSA assay reported by Williams et al. BSA solution (0.4%, w/v) was prepared in Tris Buffered Saline. The pH was adjusted to 6.4 with glacial acetic acid. Different dilutions of 20, 40, 60, 80, and 100 μg/mL of 7-(4-((5-(4-chlorobenzylideneamino)-2-thioxo-1,3,4-thiadiazol-3(2H)-yl)methyl)piperazin-1-yl)-1-cyclopropyl-6-fluoro-4-oxo-1,4-dihydroquinoline-3-carboxylic acid (IV) the stock solutions were added to test tubes containing 1 mL of 0.4%, w/v BSA buffer solution. Both negative (solvent) and positive (aspirin) controls were assayed in a similar manner. The solutions were then heated in a water bath at 72° C. for 10 minutes, and cooled for 20 minutes under laboratory conditions. The turbidity of the solutions (level of protein precipitation) was measured at 660 nm in Spectrophotometer (V-770 UV-Visible/NIR Spectrophotometer). The percentage inhibition of precipitation (protein denaturation) was determined relative to the negative control using the following equation:
[formula] % Anti-Denaturation Activity=% Inhibition of Protein Denaturation=% Anti-inflammatory Activity

melting point: 221 to 223 °C
in vitro anti-inflammatory activity (inhibition of protein denaturation) [1]: considerable anti-inflammatory effect
Structure (SMILES): O=C(O)c1cn(C2CC2)c2cc(N3CCN(Cn4nc(/N=C/c5ccc(Cl)cc5)sc4=S)CC3)c(F)cc2c1=O [IV, 7-(4-((5-(4-chlorobenzylideneamino)-2-thioxo-1,3,4-thiadiazol-3(2H)-yl)methyl)piperazin-1-yl)-1-cyclopropyl-6-fluoro-4-oxo-1,4-dihydroquinoline-3-carboxylic acid]
